# Measured values as given in ChEMBL document CHEMBL1151449, “In vitro activity of DC-159a, a new broad-spectrum fluoroquinolone, compared with that of other agents against drug-susceptible and -resistant pneumococci” (2008).
# What was measured:
# Assay type in all cases: functional
# Streptococcus pneumoniae [1] = experiment: Antibacterial activity against azithromycin-susceptible Streptococcus pneumoniae ATCC 49619 by agar dilution method
# Streptococcus pneumoniae [2] = experiment: Antibacterial activity against penicillin-resistant Streptococcus pneumoniae […] by agar dilution method
# Streptococcus pneumoniae [3] = experiment: Antibacterial activity against penicillin-, macrolide-susceptible and quinolone-resistant Streptococcus pneumoniae HMC 1074 harboring S81F, E85K mutation in quinolone-resistant determining regions of GyrA gene, S79F mutation in QRDR of ParC gene and I460V mutation in QRDR of ParE gene after 27 passages with gemifloxacin measured after 10 daily antibiotic-free subculturing by multi-step resistance selection technique
# Streptococcus pneumoniae [4] = experiment: Antibacterial activity against quinolone-susceptible Streptococcus pneumoniae ATCC 49619 by agar dilution method
# Streptococcus pneumoniae [5] = experiment: Antibacterial activity against quinolone-resistant Streptococcus pneumoniae […] by agar dilution method
# Streptococcus pneumoniae [6] = experiment: Antibacterial activity against penicillin-susceptible Streptococcus pneumoniae ATCC 49619 by agar dilution method
# Streptococcus pneumoniae [7] = experiment: Antibacterial activity against azithromycin-resistant Streptococcus pneumoniae […] by agar dilution method
# Streptococcus pneumoniae [8] = experiment: Antibacterial activity against penicillin-intermediate Streptococcus pneumoniae […] by agar dilution method
# Streptococcus pneumoniae [9] = experiment: Antibacterial activity against Streptococcus pneumoniae HMC 1151 harboring D83N, K137N mutation in quinolone-resistant determining regions of ParC gene and I460V mutation in QRDR of ParE gene showing efflux to ciprofloxacin, gemifloxacin by agar dilution method
# Streptococcus pneumoniae [10] = experiment: Antibacterial activity against Streptococcus pneumoniae HMC 1541 harboring S81Y mutation in quinolone-resistant determining regions of GyrA gene, S79F, K137N mutation in QRDR of ParC gene and I460V mutation in QRDR of ParE gene by agar dilution method
# Streptococcus pneumoniae [11] = experiment: Antibacterial activity against Streptococcus pneumoniae HMC 1060 harboring S81F mutation in quinolone-resistant determining regions of GyrA gene, S79F, K137N mutation in QRDR of ParC gene and I460V mutation in QRDR of ParE gene by agar dilution method
# Streptococcus pneumoniae [12] = experiment: Antibacterial activity against Streptococcus pneumoniae HMC 5041 harboring S81F and S79F mutation in quinolone-resistant determining regions of GyrA and ParC genes respectively by agar dilution method
# Streptococcus pneumoniae [13] = experiment: Antibacterial activity against Streptococcus pneumoniae HMC 1078 harboring S81F mutation in quinolone-resistant determining regions of GyrA gene, S79F mutation in QRDR of ParC gene and I460V mutation in QRDR of ParE gene by agar dilution method
# Streptococcus pneumoniae [14] = experiment: Antibacterial activity against Streptococcus pneumoniae HMC 1073 harboring S81F mutation in quinolone-resistant determining regions of GyrA gene, and I460V mutation in QRDR of ParE gene by agar dilution method
# Streptococcus pneumoniae [15] = experiment: Antibacterial activity against Streptococcus pneumoniae HMC 1156 harboring S81F and S79F mutation in quinolone-resistant determining regions of GyrA and ParC genes respectively showing efflux to ciprofloxacin, gemifloxacin by agar dilution method
# Streptococcus pneumoniae [16] = experiment: Antibacterial activity against Streptococcus pneumoniae HMC 1146 harboring S81F mutation in quinolone-resistant determining regions of GyrA gene, and D435N mutation in QRDR of ParE gene by agar dilution method
# Streptococcus pneumoniae [17] = experiment: Antibacterial activity against Streptococcus pneumoniae HMC 1068 harboring E85K mutation in quinolone-resistant determining regions of GyrA gene, S79Y, K137N mutation in QRDR of ParC gene and I460V mutation in QRDR of ParE gene showing efflux to ciprofloxacin, levofloxacin by agar dilution method
# Streptococcus pneumoniae [18] = experiment: Antibacterial activity against Streptococcus pneumoniae HMC 1139 harboring S81F mutation in quinolone-resistant determining regions of GyrA gene, S79F, K137N mutation in QRDR of ParC gene and I460V mutation in QRDR of ParE gene by agar dilution method
# Streptococcus pneumoniae [19] = experiment: Antibacterial activity against Streptococcus pneumoniae HMC 1074 harboring S81F mutation in quinolone-resistant determining regions of GyrA gene, S79F mutation in QRDR of ParC gene and I460V mutation in QRDR of ParE gene by agar dilution method
# Streptococcus pneumoniae [20] = experiment: Antibacterial activity against Streptococcus pneumoniae HMC 1066 harboring S81F mutation in quinolone-resistant determining regions of GyrA gene, S79F mutation in QRDR of ParC gene and I460V mutation in QRDR of ParE gene by agar dilution method
# Streptococcus pneumoniae [21] = experiment: Antibacterial activity against Streptococcus pneumoniae HMC 1076 harboring S81F mutation in quinolone-resistant determining regions of GyrA gene, D83N mutation in QRDR of ParC gene and I460V mutation in QRDR of ParE gene by agar dilution method
# Streptococcus pneumoniae [22] = experiment: Antibacterial activity against Streptococcus pneumoniae HMC 1071 harboring S81F mutation in quinolone-resistant determining regions of GyrA gene and S79F, K137N mutation in QRDR of ParC gene by agar dilution method
# Streptococcus pneumoniae [23] = experiment: Antibacterial activity against Streptococcus pneumoniae HMC 1072 harboring S81F mutation in quinolone-resistant determining regions of GyrA gene, S79Y mutation in QRDR of ParC gene and I460V mutation in QRDR of ParE gene by agar dilution method
# Streptococcus pneumoniae [24] = experiment: Antibacterial activity against Streptococcus pneumoniae HMC 1058 harboring S79F, K137N mutation in quinolone-resistant determining regions of ParC gene and 460V mutation in QRDR of ParE gene by agar dilution method
# Streptococcus pneumoniae [25] = experiment: Antibacterial activity against Streptococcus pneumoniae HMC 1147 harboring S81F mutation in quinolone-resistant determining regions of GyrA gene, S79F mutation in QRDR of ParC gene and I460V mutation in QRDR of ParE gene showing efflux to gemifloxacin by agar dilution method
# Streptococcus pneumoniae [26] = experiment: Antibacterial activity against Streptococcus pneumoniae HMC 4026 harboring S81Y mutation in quinolone-resistant determining regions of GyrA gene, S79F, K137N mutation in QRDR of ParC gene and I460V mutation in QRDR of ParE gene by agar dilution method
# Streptococcus pneumoniae [27] = experiment: Antibacterial activity against Streptococcus pneumoniae HMC 2536 harboring S81Y mutation in quinolone-resistant determining regions of GyrA gene, S79F, K137N mutation in QRDR of ParC gene and I460V mutation in QRDR of ParE gene by agar dilution method
# Streptococcus pneumoniae [28] = experiment: Antibacterial activity against Streptococcus pneumoniae HMC 1062 harboring S81F mutation in quinolone-resistant determining regions of GyrA gene, S79F mutation in QRDR of ParC gene and I460V mutation in QRDR of ParE gene by agar dilution method
# Streptococcus pneumoniae [29] = experiment: Antibacterial activity against Streptococcus pneumoniae HMC 2538 harboring S81Y mutation in quinolone-resistant determining regions of GyrA gene, S79F, K137N mutation in QRDR of ParC gene and I460V mutation in QRDR of ParE gene showing efflux to ciprofloxacin, levofloxacin, gatifloxacin by agar dilution method
# Streptococcus pneumoniae [30] = experiment: Antibacterial activity against Streptococcus pneumoniae HMC 1150 harboring S81C mutation in quinolone-resistant determining regions of GyrA gene, S79F mutation in QRDR of ParC gene and I460V mutation in QRDR of ParE gene by agar dilution method
# Streptococcus pneumoniae [31] = experiment: Antibacterial activity against Streptococcus pneumoniae HMC 2527 harboring S81Y mutation in quinolone-resistant determining regions of GyrA gene, S79F, K137N mutation in QRDR of ParC gene and I460V mutation in QRDR of ParE gene by agar dilution method
# Streptococcus pneumoniae [32] = experiment: Antibacterial activity against Streptococcus pneumoniae HMC 1070 harboring S81F mutation in quinolone-resistant determining regions of GyrA gene, D83N mutation in QRDR of ParC gene and I460V mutation in QRDR of ParE gene by agar dilution method
# Streptococcus pneumoniae [33] = experiment: Antibacterial activity against Streptococcus pneumoniae HMC 1055 harboring S81F mutation in quinolone-resistant determining regions of GyrA gene, S79F, K137N mutation in QRDR of ParC gene and I460V mutation in QRDR of ParE gene by agar dilution method
# Streptococcus pneumoniae [34] = experiment: Antibacterial activity against Streptococcus pneumoniae HMC 1077 harboring S81Y and S79F mutation in quinolone-resistant determining regions of GyrA and ParC genes respectively by agar dilution method
# Streptococcus pneumoniae [35] = experiment: Antibacterial activity against Streptococcus pneumoniae HMC 1059 harboring S81F mutation in quinolone-resistant determining regions of GyrA gene, S79F, K137N mutation in QRDR of ParC gene and I460N mutation in QRDR of ParE gene by agar dilution method
# Streptococcus pneumoniae [36] = experiment: Antibacterial activity against Streptococcus pneumoniae HMC 1149 harboring S81F and S79Y mutation in quinolone-resistant determining regions of GyrA and ParC genes respectively showing efflux to ciprofloxacin, gemifloxacin by agar dilution method
smiles,measurement,setting,value
C[C@H]1COc2c(N3CCN(C)CC3)c(F)cc3c(=O)c(C(=O)O)cn1c23.C[C@H]1COc2c(N3CCN(C)CC3)c(F)cc3c(=O)c(C(=O)O)cn1c23.O [LEVOFLOXACIN],MIC50,Streptococcus pneumoniae [1],1 mg/L
same,MIC90,Streptococcus pneumoniae [1],8 mg/L
same,MIC50,Streptococcus pneumoniae [2],1 mg/L
same,MIC90,Streptococcus pneumoniae [2],8 mg/L
same,MIC,Streptococcus pneumoniae [3],64 mg/L
same,MIC50,Streptococcus pneumoniae [4],1 mg/L
same,MIC90,Streptococcus pneumoniae [4],1 mg/L
same,MIC50,Streptococcus pneumoniae [5],16 mg/L
same,MIC90,Streptococcus pneumoniae [5],16 mg/L
same,MIC50,Streptococcus pneumoniae [6],1 mg/L
same,MIC90,Streptococcus pneumoniae [6],4 mg/L
same,MIC50,Streptococcus pneumoniae [7],1 mg/L
same,MIC90,Streptococcus pneumoniae [7],2 mg/L
same,MIC50,Streptococcus pneumoniae [8],1 mg/L
same,MIC90,Streptococcus pneumoniae [8],1 mg/L
O=C(O)c1cn(C2CC2)c2cc(N3CCNCC3)c(F)cc2c1=O [CIPROFLOXACIN],MIC,Streptococcus pneumoniae [9],16 mg/L
same,MIC,Streptococcus pneumoniae [10],16 mg/L
same,MIC,Streptococcus pneumoniae [11],16 mg/L
same,MIC,Streptococcus pneumoniae [12],16 mg/L
same,MIC,Streptococcus pneumoniae [13],> 32 mg/L
same,MIC,Streptococcus pneumoniae [14],8 mg/L
same,MIC,Streptococcus pneumoniae [15],> 32 mg/L
same,MIC,Streptococcus pneumoniae [16],32 mg/L
same,MIC,Streptococcus pneumoniae [17],32 mg/L
same,MIC,Streptococcus pneumoniae [18],32 mg/L
same,MIC,Streptococcus pneumoniae [19],16 mg/L
same,MIC,Streptococcus pneumoniae [20],16 mg/L
same,MIC,Streptococcus pneumoniae [21],16 mg/L
same,MIC,Streptococcus pneumoniae [22],32 mg/L
same,MIC,Streptococcus pneumoniae [23],> 32 mg/L
same,MIC,Streptococcus pneumoniae [24],16 mg/L
same,MIC,Streptococcus pneumoniae [25],32 mg/L
same,MIC,Streptococcus pneumoniae [26],> 32 mg/L
same,MIC50,Streptococcus pneumoniae [5],16 mg/L
same,MIC90,Streptococcus pneumoniae [5],> 32 mg/L
same,MIC,Streptococcus pneumoniae [27],16 mg/L
same,MIC,Streptococcus pneumoniae [28],> 32 mg/L
same,MIC,Streptococcus pneumoniae [29],16 mg/L
same,MIC,Streptococcus pneumoniae [30],16 mg/L
same,MIC,Streptococcus pneumoniae [31],16 mg/L
same,MIC,Streptococcus pneumoniae [32],> 32 mg/L
same,MIC,Streptococcus pneumoniae [33],32 mg/L
same,MIC,Streptococcus pneumoniae [34],> 32 mg/L
same,MIC,Streptococcus pneumoniae [35],32 mg/L
same,MIC,Streptococcus pneumoniae [36],16 mg/L
CC1(C)S[C@@H]2[C@H](NC(=O)Cc3ccccc3)C(=O)N2[C@H]1C(=O)O [PENICILLIN G],MIC50,Streptococcus pneumoniae [1],0.25 mg/L
same,MIC90,Streptococcus pneumoniae [1],2 mg/L
same,MIC50,Streptococcus pneumoniae [2],2 mg/L
same,MIC90,Streptococcus pneumoniae [2],4 mg/L
same,MIC50,Streptococcus pneumoniae [4],0.25 mg/L
same,MIC90,Streptococcus pneumoniae [4],4 mg/L
same,MIC50,Streptococcus pneumoniae [5],0.5 mg/L
same,MIC90,Streptococcus pneumoniae [5],4 mg/L
same,MIC50,Streptococcus pneumoniae [6],0.03 mg/L
same,MIC90,Streptococcus pneumoniae [6],0.06 mg/L
same,MIC50,Streptococcus pneumoniae [7],0.5 mg/L
same,MIC90,Streptococcus pneumoniae [7],4 mg/L
same,MIC50,Streptococcus pneumoniae [8],0.25 mg/L
same,MIC90,Streptococcus pneumoniae [8],1 mg/L
CC[C@H]1OC(=O)[C@H](C)C(=O)[C@H](C)[C@@H](O[C@@H]2O[C@H](C)C[C@H](N(C)C)[C@H]2O)[C@](C)(OC)C[C@@H](C)C(=O)[C@H](C)[C@H]2N(CCCCn3cnc(-c4cccnc4)c3)C(=O)O[C@]12C [TELITHROMYCIN],MIC50,Streptococcus pneumoniae [1],0.016 mg/L
same,MIC90,Streptococcus pneumoniae [1],0.03 mg/L
same,MIC50,Streptococcus pneumoniae [2],0.06 mg/L
same,MIC90,Streptococcus pneumoniae [2],0.25 mg/L
same,MIC50,Streptococcus pneumoniae [4],0.03 mg/L
same,MIC90,Streptococcus pneumoniae [4],0.12 mg/L
same,MIC50,Streptococcus pneumoniae [5],0.016 mg/L
same,MIC90,Streptococcus pneumoniae [5],0.25 mg/L
same,MIC50,Streptococcus pneumoniae [6],0.03 mg/L
same,MIC90,Streptococcus pneumoniae [6],0.12 mg/L
same,MIC50,Streptococcus pneumoniae [7],0.06 mg/L
same,MIC90,Streptococcus pneumoniae [7],0.25 mg/L
same,MIC50,Streptococcus pneumoniae [8],0.03 mg/L
same,MIC90,Streptococcus pneumoniae [8],0.12 mg/L
